As usually defined, the ILS is how much longer treated animals lived than controls.

Each structure is given as a SMILES string.

ILS data for 41 compounds are collected here from patent US5733924A, “DC 107 derivatives and treatment methods” (Kyowa Hakko Kogyo Co., Ltd., priority 1995, dated 1998).

In one assay the test system is P388 Leukemia. Nature of the assay: Antitumor activity against P388 leukemia in mice (increased life span). The assay is classed as in vivo, CDF1 mice. As to conditions: Mus musculus, P388, ip, 720 h, read-out: ILS (increased life span). On the procedure:
Ascites were collected from the abdominal cavity of P388 ascites tumor-bearing cancer mice (DBA/2) on the 7th day after transplantation. A number of P388 cells in the ascites was counted, and a tumor cell floating liquid of 5×10^6 cells/ml was prepared using a physiological saline solution. Then, 0.2 ml of the solution containing 1×10^6 cells was transplanted into the abdominal cavity of CDF1 mice having a body weight of from 20 to 25 g.
The effect of the test compound was determined in terms of the ratio of average survival days of the group administered with the test compound to average survival days of the control group (non-medicated group) (i.e., an increased life span, ILS%).
Take `COC1(OC2C=C(C)CCC3(C(C)(O)C(=O)SCc4oc(=O)oc4C)CC(=O)N(C(C)c4nc(cs4)C=CC=CC2=O)[S+]3[O-])CC[S+]([O-])CC1` (centres unmarked) [Compound 128]: the ILS at 4 mg/kg worked out at 84%.
Take `C/C1=C\C(OC(=O)OCC2c3ccccc3-c3ccccc32)C(=O)/C=C/C=C\c2csc(n2)C(C)N2C(=O)CC(C(C)(O)C(=O)SCc3oc(=O)oc3C)(CC1)[S+]2[O-]` (centres unmarked) [Compound 57]: the ILS at 4 mg/kg was 53%.
For `CC1=CC(OC(=O)[C@H](C)NC(=O)OCc2ccccc2)C(=O)C=CC=Cc2csc(n2)C(C)N2C(=O)CC(C(C)(O)C(=O)SCc3oc(=O)oc3C)(CC1)[S+]2[O-]` (some centres unmarked) [Compound 163], the ILS at 2 mg/kg stood at 46%.
As for `C/C1=C\C(O)C(=O)/C=C/C=C\c2csc(n2)C(C)N2C(=O)CC(C(C)(O)C(=O)SCOC(=O)C(C)(C)C)(CC1)[S+]2[O-]` (centres unmarked) [Compound 34], the ILS at 2 mg/kg worked out at 48%.
For the compound `C/C1=C\C(OC(=O)C2CCCCC2)C(=O)/C=C/C=C\c2csc(n2)C(C)N2C(=O)CC(C(C)(O)C(=O)SCc3oc(=O)oc3C)(CC1)[S+]2[O-]` (centres unmarked) [Compound 48], the ILS at 8 mg/kg stood at 47%.
Take `C/C1=C\C(OC(=O)Oc2ccccc2)C(=O)/C=C/C=C\c2csc(n2)C(C)N2C(=O)CC(C(C)(O)C(=O)SCc3oc(=O)oc3C)(CC1)[S+]2[O-]` (centres unmarked) [Compound 55]: the ILS at 1 mg/kg turned out to be 40%.
`C/C1=C\C(OC(=O)OCc2ccccc2)C(=O)/C=C/C=C\c2csc(n2)C(C)N2C(=O)CC(C(C)(O)C(=O)SCc3oc(=O)oc3C)(CC1)[S+]2[O-]` (centres unmarked) [Compound 56]: the ILS at 1 mg/kg was 63%.
On to `C/C1=C\C(O)C(=O)/C=C/C=C\c2csc(n2)C(C)N2C(=O)CC(C(C)(O)C(=O)SCc3oc(=O)oc3C)(CC1)[S+]2[O-]` (centres unmarked) [Compound 35], for which the ILS at 2 mg/kg was 65%.

The same assay, now with this note: Mus musculus, P388, ip, 720 h; 1.0 mg/kg, single i.p. 24 hours after transplantation, CDF1 mice, 30 days observation; read-out: ILS (increased life span).
For the compound `COC1(OC2C=C(C)CCC3(C(C)(O)C(=O)SCc4oc(=O)oc4C)CC(=O)N(C(C)c4nc(cs4)C=CC=CC2=O)[S+]3[O-])CCS(=O)(=O)CC1` (centres unmarked) [Compound 129], the increase in life span (ILS) at 1 mg/kg stood at 64%.
Consider `C/C1=C\C(OC(=O)OCc2ccccc2)C(=O)/C=C/C=C\c2csc(n2)C(C)NC(=O)CC2(CC1)[S+]([O-])SC(=O)C2(C)O` (centres unmarked) [Compound 14], for which the ILS at 1 mg/kg was 42%.
Turning to `C/C1=C\C(OC(=O)Oc2ccccc2)C(=O)/C=C/C=C\c2csc(n2)C(C)NC(=O)CC2(CC1)[S+]([O-])SC(=O)C2(C)O` (centres unmarked) [Compound 12], the ILS at 1 mg/kg was 44%.

The assay is the same for the next values; noted with them: Mus musculus, P388, ip, 720 h; 2.0 mg/kg, single i.p. 24 hours after transplantation, CDF1 mice, 30 days observation; read-out: ILS (increased life span).
As to `CCOC(=O)OC1/C=C(\C)CCC2(C(C)(O)C(=O)SCc3oc(=O)oc3C)CC(=O)N(C(C)c3nc(cs3)/C=C\C=C\C1=O)[S+]2[O-]` (centres unmarked) [Compound 53], the ILS at 2 mg/kg turned out to be 43%.
Consider `C/C1=C\C(OC(=O)c2cnc3ccccc3n2)C(=O)/C=C/C=C\c2csc(n2)C(C)NC(=O)CC2(CC1)[S+]([O-])SC(=O)C2(C)O` (centres unmarked) [Compound 9], for which the ILS at 2 mg/kg amounted to 44%.
For `C/C1=C\C(OC(=O)CNC(=O)OC(C)(C)C)C(=O)/C=C/C=C\c2csc(n2)C(C)NC(=O)CC2(CC1)[S+]([O-])SC(=O)C2(C)O` (centres unmarked) [Compound 96], the ILS at 2 mg/kg turned out to be 46%.
Take `CCOC(=O)OC1/C=C(\C)CCC2(C(C)(O)C(=O)SCOC(=O)C(C)(C)C)CC(=O)N(C(C)c3nc(cs3)/C=C\C=C\C1=O)[S+]2[O-]` (centres unmarked) [Compound 41]: the ILS at 2 mg/kg was 40%.
On to `CC1=CC(OC(=O)Cc2cccnc2)C(=O)C=CC=Cc2csc(n2)C(C)N2C(=O)CC(C(C)(O)C(=O)SCc3oc(=O)oc3C)(CC1)[S+]2[O-]` (centres unmarked) [Compound 147], for which the ILS at 2 mg/kg came out at 60%.
On the same count and under the same terms, the value for `CC1=CC(OC(=O)CO)C(=O)C=CC=Cc2csc(n2)C(C)N2C(=O)CC(C(C)(O)C(=O)SCc3oc(=O)oc3C)(CC1)[S+]2[O-]` (centres unmarked) [Compound 154] was 48%; that for `CC1=CC(OC(=O)c2cccnc2)C(=O)C=CC=Cc2csc(n2)C(C)N2C(=O)CC(C(C)(O)C(=O)SCc3oc(=O)oc3C)(CC1)[S+]2[O-]` (centres unmarked) [Compound 144] was 49%.
Turning to `C/C1=C\C(OC(=O)OCC(C)C)C(=O)/C=C/C=C\c2csc(n2)C(C)NC(=O)CC2(CC1)[S+]([O-])SC(=O)C2(C)O` (centres unmarked) [Compound 11], the ILS at 2 mg/kg turned out to be 50%.

Staying with this assay, now noted: Mus musculus, P388, ip, 720 h; 4.0 mg/kg, single i.p. 24 hours after transplantation, CDF1 mice, 30 days observation; read-out: ILS (increased life span).
On to `C/C1=C\C(OC(=O)[C@H](C)NC(=O)OC(C)(C)C)C(=O)/C=C/C=C\c2csc(n2)C(C)NC(=O)CC2(CC1)[S+]([O-])SC(=O)C2(C)O` (some centres unmarked) [Compound 102], for which the ILS at 4 mg/kg was 49%.
As for `CC1=CC(OC(=O)CN(C)C(=O)OC(C)(C)C)C(=O)C=CC=Cc2csc(n2)C(C)N2C(=O)CC(C(C)(O)C(=O)SCc3oc(=O)oc3C)(CC1)[S+]2[O-]` (centres unmarked) [Compound 161], the increase in life span (ILS) at 4 mg/kg came to 65%.
For `CC1=CC(OC(=O)C2CCC(=O)N2)C(=O)C=CC=Cc2csc(n2)C(C)N2C(=O)CC(C(C)(O)C(=O)SCc3oc(=O)oc3C)(CC1)[S+]2[O-]` (centres unmarked) [Compound 149], the ILS at 4 mg/kg amounted to 55%.
Same read-out and setting: the value for `C/C1=C\C(OC(=O)CN(C)C(=O)OCc2ccccc2)C(=O)/C=C/C=C\c2csc(n2)C(C)NC(=O)CC2(CC1)[S+]([O-])SC(=O)C2(C)O` (centres unmarked) [Compound 101] was 48%; that for `CC(=O)NCC(=O)OC1C=C(C)CCC2(C(C)(O)C(=O)SCc3oc(=O)oc3C)CC(=O)N(C(C)c3nc(cs3)C=CC=CC1=O)[S+]2[O-]` (centres unmarked) [Compound 160] was 62%; that for `CC1=CC(OC(=O)CNC(=O)[C@H](C)NC(=O)OCc2ccccc2)C(=O)C=CC=Cc2csc(n2)C(C)N2C(=O)CC(C(C)(O)C(=O)SCc3oc(=O)oc3C)(CC1)[S+]2[O-]` (some centres unmarked) [Compound 168] was 58%.

The assay is the same for the next values; noted with them: Mus musculus, P388, ip, 720 h; 8.0 mg/kg, single i.p. 24 hours after transplantation, CDF1 mice, 30 days observation; read-out: ILS (increased life span).
As for `CC1=CC(OC(=O)CNC(=O)C(CC(C)C)NC(=O)OCc2ccccc2)C(=O)C=CC=Cc2csc(n2)C(C)N2C(=O)CC(C(C)(O)C(=O)SCc3oc(=O)oc3C)(CC1)[S+]2[O-]` (centres unmarked) [Compound 173], the ILS at 8 mg/kg was determined as 64%.
Still for that read-out and setting: the value for `CC1=CC(OC(=O)CNC=O)C(=O)C=CC=Cc2csc(n2)C(C)N2C(=O)CC(C(C)(O)C(=O)SCc3oc(=O)oc3C)(CC1)[S+]2[O-]` (centres unmarked) [Compound 159] was 50%; that for `C/C1=C\C(OC(=O)CNC(=O)CCNC(=O)OC(C)(C)C)C(=O)/C=C/C=C\c2csc(n2)C(C)NC(=O)CC2(CC1)[S+]([O-])SC(=O)C2(C)O` (centres unmarked) [Compound 112] was 67%; that for `CC1=CC(OC(=O)[C@@H]2CCCN2C(=O)OC(C)(C)C)C(=O)C=CC=Cc2csc(n2)C(C)N2C(=O)CC(C(C)(O)C(=O)SCc3oc(=O)oc3C)(CC1)[S+]2[O-]` (some centres unmarked) [Compound 148] was 49%.
For the compound `CC1=CC(OC(=O)CNC(=O)OCc2ccccc2)C(=O)C=CC=Cc2csc(n2)C(C)N2C(=O)CC(C(C)(O)C(=O)SCc3oc(=O)oc3C)(CC1)[S+]2[O-]` (centres unmarked) [Compound 157], the ILS at 8 mg/kg stood at 98%.
`CC1=CC(OC(=O)CN(C)C(=O)OCc2ccccc2)C(=O)C=CC=Cc2csc(n2)C(C)N2C(=O)CC(C(C)(O)C(=O)SCc3oc(=O)oc3C)(CC1)[S+]2[O-]` (centres unmarked) [Compound 162]: the ILS at 8 mg/kg came to 57%.
The same measure, in the same setting: the value for `C/C1=C\C(OC(=O)CNC(=O)[C@H](C)NC(=O)OCc2ccccc2)C(=O)/C=C/C=C\c2csc(n2)C(C)NC(=O)CC2(CC1)[S+]([O-])SC(=O)C2(C)O` (some centres unmarked) [Compound 110] was 58%; that for `CC1=CC(OC(=O)CNC(=O)CNC(=O)OCc2ccccc2)C(=O)C=CC=Cc2csc(n2)C(C)N2C(=O)CC(C(C)(O)C(=O)SCc3oc(=O)oc3C)(CC1)[S+]2[O-]` (centres unmarked) [Compound 166] was 64%; that for `C/C1=C\C(OC(=O)CNC(=O)C(CC(C)C)NC(=O)OCc2ccccc2)C(=O)/C=C/C=C\c2csc(n2)C(C)NC(=O)CC2(CC1)[S+]([O-])SC(=O)C2(C)O` (centres unmarked) [Compound 115] was 67%.
Take `COC1(OC2/C=C(\C)CCC3(CC(=O)NC(C)c4nc(cs4)/C=C\C=C\C2=O)[S+]([O-])SC(=O)C3(C)O)CCCCC1` (centres unmarked) [Compound 91]: the ILS at 8 mg/kg is 48%.

Staying with this assay, now noted: Mus musculus, P388, ip, 720 h; 16 mg/kg, single i.p. 24 hours after transplantation, CDF1 mice, 30 days observation.
The compound `CC1=CC(OC(=O)CCNC(=O)CNC(=O)OCc2ccccc2)C(=O)C=CC=Cc2csc(n2)C(C)N2C(=O)CC(C(C)(O)C(=O)SCc3oc(=O)oc3C)(CC1)[S+]2[O-]` (centres unmarked) [Compound 176] came in with an ILS at 16 mg/kg of 75%.
Same read-out and setting: the value for `C/C1=C\C(OC(=O)CCNC(=O)CNC(=O)OCc2ccccc2)C(=O)/C=C/C=C\c2csc(n2)C(C)NC(=O)CC2(CC1)[S+]([O-])SC(=O)C2(C)O` (centres unmarked) [Compound 118] was 71%.
Compound `CC1=CC(OC(=O)CN(C)C(=O)CCNC(=O)OCc2ccccc2)C(=O)C=CC=Cc2csc(n2)C(C)N2C(=O)CC(C(C)(O)C(=O)SCc3oc(=O)oc3C)(CC1)[S+]2[O-]` (centres unmarked) [Compound 175] yielded an ILS at 16 mg/kg of 65%.
Still for that read-out and setting: in the case of `C/C1=C\C(OC(=O)CCNC(=O)CCNC(=O)OCc2ccccc2)C(=O)/C=C/C=C\c2csc(n2)C(C)NC(=O)CC2(CC1)[S+]([O-])SC(=O)C2(C)O` (centres unmarked) [Compound 119] it was 63%.
In turn, `CC1=CC(OC(=O)CNC(=O)CCNC(=O)OCc2ccccc2)C(=O)C=CC=Cc2csc(n2)C(C)N2C(=O)CC(C(C)(O)C(=O)SCc3oc(=O)oc3C)(CC1)[S+]2[O-]` (centres unmarked) [Compound 169] yielded an ILS at 16 mg/kg of 91%.

The same assay, now with this note: Mus musculus, P388, ip, 720 h; 32 mg/kg, single i.p. 24 hours after transplantation, CDF1 mice, 30 days observation.
Compound `CC1=CC(OC(=O)CCNC(=O)CCNC(=O)OCc2ccccc2)C(=O)C=CC=Cc2csc(n2)C(C)N2C(=O)CC(C(C)(O)C(=O)SCc3oc(=O)oc3C)(CC1)[S+]2[O-]` (centres unmarked) [Compound 177] showed an increase in lifespan (ILS) at 32 mg/kg of 52%.
